Laboratory results published in ChEMBL document CHEMBL1201862, “PubChem BioAssay data set” (2004).
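Interpolation was linear, between the two tested concentrations surrounding the appropriate level; five concentrations were tested over 48 hours in 96-well plates. Abbreviation: GI50, concentration required for 50% inhibition of growth.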 The source made the active and inactive calls. Rule as the data show it: active = GI50 up to about 1.1 µM and inactive = higher.

Experiments:
Assay in all cases: NCI anticancer screen, dose series, 48 h
A498 = system: A498
CAKI-1 = system: CAKI-1
HOP-62 = system: HOP-62
KM12 = system: KM12
M14 = system: M14
NCI-H226 = system: NCI-H226
OVCAR-3 = system: OVCAR-3
OVCAR-8 = system: OVCAR-8
RXF 393 = system: RXF 393
SF-268 = system: SF-268
SF-539 = system: SF-539
SK-OV-3 = system: SK-OV-3
SR = system: SR
UACC-257 = system: UACC-257
EKVX = system: EKVX
HCT-116 = system: HCT-116
HT-29 = system: HT-29
LOX IMVI = system: LOX IMVI
NCI-H522 = system: NCI-H522
IGROV-1 = system: IGROV-1

| Compound | GI50 (A498) | GI50 (CAKI-1) | GI50 (HOP-62) | GI50 (KM12) | GI50 (M14) | GI50 (NCI-H226) | GI50 (OVCAR-3) | GI50 (OVCAR-8) | GI50 (RXF 393) | GI50 (SF-268) | GI50 (SF-539) | GI50 (SK-OV-3) | GI50 (SR) | GI50 (UACC-257) | GI50 (EKVX) | GI50 (HCT-116) | GI50 (HT-29) | GI50 (LOX IMVI) | GI50 (NCI-H522) | GI50 (IGROV-1) |
| --- | --- | --- | --- | --- | --- | --- | --- | --- | --- | --- | --- | --- | --- | --- | --- | --- | --- | --- | --- | --- |
| COc1ccc(-c2cs/c(=N\c3ccccc3)n2CCCN(C)C)cc1 | 22 µM (inactive) | 71.9 µM (inactive) | 13.6 µM (inactive) | 15 µM (inactive) | 10.7 µM (inactive) | 18.2 µM (inactive) | 17.1 µM (inactive) | 21.8 µM (inactive) | 12.2 µM (inactive) | 24.3 µM (inactive) | 13.6 µM (inactive) | 15.6 µM (inactive) | 22.8 µM (inactive) | 18.9 µM (inactive) |  |  |  |  |  |  |
| Cc1cc(C)nc(NS(=O)(=O)c2ccc(NC(=O)c3cccc4c(Nc5ccc(S(=O)(=O)Nc6cc(C)on6)cc5)c5ccccc5nc34)cc2)n1 | 23.8 µM (inactive) |  | 19.1 µM (inactive) | 16.4 µM (inactive) | 22.7 µM (inactive) |  | 19.9 µM (inactive) |  | 20.1 µM (inactive) | 19.7 µM (inactive) | 17.1 µM (inactive) | 27.9 µM (inactive) | 27.2 µM (inactive) | 22.2 µM (inactive) | 24.9 µM (inactive) | 25.9 µM (inactive) | 22.2 µM (inactive) | 18.9 µM (inactive) | 16.3 µM (inactive) |  |
| CC1(Br)S(=O)(=O)OCCOS1(=O)=O | > 100 µM (inactive) |  | > 100 µM (inactive) |  | > 100 µM (inactive) | > 100 µM (inactive) | > 100 µM (inactive) | > 100 µM (inactive) | > 100 µM (inactive) | > 100 µM (inactive) | > 100 µM (inactive) | > 100 µM (inactive) | > 100 µM (inactive) | > 100 µM (inactive) | > 100 µM (inactive) | > 100 µM (inactive) | > 100 µM (inactive) | > 100 µM (inactive) | > 100 µM (inactive) | > 100 µM (inactive) |
| ON(Cc1ccccc1)C(=S)c1ccccc1 | 25.3 µM (inactive) |  | 4.85 µM (inactive) | 4.76 µM (inactive) | 5.21 µM (inactive) | 20.1 µM (inactive) | 2.72 µM (inactive) | 3.46 µM (inactive) | 8.97 µM (inactive) | 3.32 µM (inactive) | 5.43 µM (inactive) | 14.7 µM (inactive) | 0.481 µM (active) | 4.72 µM (inactive) | 7.23 µM (inactive) | 3.4 µM (inactive) | 2.88 µM (inactive) | 2.24 µM (inactive) | 0.482 µM (active) | 5.86 µM (inactive) |
| O=c1cc(O)c1=O | > 100 µM (inactive) | > 100 µM (inactive) | > 100 µM (inactive) | > 100 µM (inactive) | > 100 µM (inactive) | > 100 µM (inactive) | > 100 µM (inactive) | > 100 µM (inactive) |  | 61.2 µM (inactive) | > 100 µM (inactive) | > 100 µM (inactive) | > 100 µM (inactive) | > 100 µM (inactive) | > 100 µM (inactive) | > 100 µM (inactive) | > 100 µM (inactive) | > 100 µM (inactive) | > 100 µM (inactive) | > 100 µM (inactive) |
| COc1ccc(NC(=O)C(=O)NNC(=O)c2sc(NNC(C)=O)nc2C)c([N+](=O)[O-])c1 | 33.3 µM (inactive) |  | > 100 µM (inactive) | > 100 µM (inactive) | > 100 µM (inactive) | > 100 µM (inactive) | 33.5 µM (inactive) | > 100 µM (inactive) |  | 51.8 µM (inactive) | > 100 µM (inactive) | > 100 µM (inactive) | 45.3 µM (inactive) | 81.7 µM (inactive) | > 100 µM (inactive) | > 100 µM (inactive) | > 100 µM (inactive) | 40.6 µM (inactive) | 30.1 µM (inactive) | > 10 µM (inactive) |
| C#CCN(Cc1ccc2nc(-c3ccccc3)c(Cl)nc2c1)c1ccc(F)cc1 | > 100 µM (inactive) | > 100 µM (inactive) | > 100 µM (inactive) | > 100 µM (inactive) | > 100 µM (inactive) |  | > 100 µM (inactive) | > 100 µM (inactive) |  | > 100 µM (inactive) | > 100 µM (inactive) |  | 45.8 µM (inactive) | > 100 µM (inactive) | > 100 µM (inactive) | > 100 µM (inactive) | 61.9 µM (inactive) | > 100 µM (inactive) | 40.6 µM (inactive) | > 100 µM (inactive) |
| CC1=CC(=O)CC2(C)CCC(C(C)CC(=O)CC(C)C)CC12 (centres undefined) | > 100 µM (inactive) | 16.4 µM (inactive) |  | 19 µM (inactive) | 17.2 µM (inactive) | 24.9 µM (inactive) |  | 24.5 µM (inactive) | 23.6 µM (inactive) | 55.8 µM (inactive) | 16.4 µM (inactive) |  | 20 µM (inactive) | 23.9 µM (inactive) | 48.9 µM (inactive) | 16.1 µM (inactive) | 25.8 µM (inactive) | 18.9 µM (inactive) | 15.1 µM (inactive) | 26.2 µM (inactive) |
| CC(O)(P(=O)(O)O)P(=O)(O)OCC(O)CN1CCOCC1 (centres undefined) | > 100 µM (inactive) | > 100 µM (inactive) | > 100 µM (inactive) | > 100 µM (inactive) | > 100 µM (inactive) | > 100 µM (inactive) |  | > 100 µM (inactive) | > 100 µM (inactive) | > 100 µM (inactive) | 95.1 µM (inactive) | > 100 µM (inactive) | > 100 µM (inactive) | > 100 µM (inactive) | > 100 µM (inactive) | > 100 µM (inactive) | > 100 µM (inactive) | > 100 µM (inactive) | > 100 µM (inactive) | > 100 µM (inactive) |
| CCCCCCCc1cscc1-c1cscc1Br | 86.7 µM (inactive) | 22.5 µM (inactive) | 57.4 µM (inactive) | 27.2 µM (inactive) | 31.9 µM (inactive) | 65.2 µM (inactive) |  | 52 µM (inactive) | 27 µM (inactive) | > 100 µM (inactive) | > 100 µM (inactive) | 45.9 µM (inactive) | 19.6 µM (inactive) | 31.6 µM (inactive) | 56.1 µM (inactive) | 32.7 µM (inactive) |  | 20.1 µM (inactive) | 21.4 µM (inactive) | 59.7 µM (inactive) |
| S=C=NCCc1ccccc1 [PHENETHYLISOTHIOCYANATE] | 0.431 µM (active) |  | 0.371 µM (active) | 0.239 µM (active) | 0.46 µM (active) | 1.49 µM (inactive) | 0.612 µM (active) | 1.33 µM (inactive) | 0.443 µM (active) | 1.06 µM (active) | 0.207 µM (active) | 1.72 µM (inactive) | 0.351 µM (active) | 0.885 µM (active) | 16.8 µM (inactive) | 0.453 µM (active) | 0.219 µM (active) | 0.194 µM (active) | 0.193 µM (active) | 0.435 µM (active) |
